# Values quoted from earlier work, collected in patent publication US20130195986A1, “New Particles of Tetracyclines and Protecting Agent” (HOVIONE INTER LTD, priority 2010, published 2013).
# Tested on: staining of the teeth and bones and pigmentation of the thyroid gland
# Details: rats; simultaneous administration of ascorbic acid (vitamin C) with minocycline
smiles,measurement,value
O=C1O[C@H]([C@@H](O)CO)C(O)=C1O [ascorbic acid],staining of the teeth and bones and pigmentation of the thyroid gland,prevented staining of the teeth and bones and pigmentation of the thyroid gland
